We go through 17 compounds from ChEMBL document CHEMBL1138308, “Synthesis and antibacterial activity of potent heterocyclic oxazolidinones and the identification of RBx 8700” (2007).

Holding throughout (assay type): functional
Assay [1] concerns Staphylococcus aureus. In words: Antibacterial activity against Staphylococcus aureus ATCC 25923 after 24 hrs by agar dilution method. The conditions noted are these: ATCC 25923, 24 h.
In assay [2] the test system is Staphylococcus aureus. Put plainly: Antibacterial activity against methicillin-resistant Staphylococcus aureus 562 after 24 hrs by agar dilution method.
Assay [3] relates to Staphylococcus aureus. In words: Antibacterial activity against methicillin-resistant Staphylococcus aureus 33 after 24 hrs by agar dilution method.
The test system of the next assay is Streptococcus pneumoniae. Put plainly: Antibacterial activity against Streptococcus pneumoniae ATCC 6303 after 24 hrs by agar dilution method. Conditions: ATCC 6303, 24 h.
The subject of the next assay is Streptococcus pyogenes. Put plainly: Antibacterial activity against Streptococcus pyogenes ATCC 19615 after 24 hrs by agar dilution method. Conditions: ATCC 19615, 24 h.
Another assay relates to Enterococcus faecium. In words: Antibacterial activity against vancomycin-resistant Enterococcus faecium 6A after 24 hrs by agar dilution method.
The next assay has as its system Enterococcus faecalis. In words: Antibacterial activity against Enterococcus faecalis ATCC 29212 after 24 hrs by agar dilution method. Conditions: ATCC 29212, 24 h.
Assay [4] deals with Staphylococcus aureus. In words: Antibacterial activity against methicillin-resistant Staphylococcus aureus 562 infected orally dosed Swiss albino mouse after 7 days. Conditions: po, 168 h.
The subject of the next assay is Haemophilus influenzae. In words: Antibacterial activity against Haemophilus influenzae.
In assay [5] the test system is Mycobacterium tuberculosis. Put plainly: Antibacterial activity against sensitive Mycobacterium tuberculosis.
In the next assay the test system is Moraxella catarrhalis. In words: Antibacterial activity against Moraxella catarrhalis.
Assay [6] deals with Staphylococcus aureus. In words: Antibacterial activity against methicillin-resistant Staphylococcus aureus 562 infected sc dosed Swiss albino mouse after 7 days. Conditions: 168 h.

In brackets after ≈: the same amount, converted by molar mass.

Take `CC(=O)NC[C@H]1CN(c2ccc(N3CCN(C(=O)/C=C/c4ccc([N+](=O)[O-])o4)CC3)c(F)c2)C(=O)O1`: the minimum inhibitory concentration (MIC) in the assay with Staphylococcus aureus [1] was 0.5 µg/mL (≈ 0.997 µM); in the assay with Staphylococcus aureus [2], 0.25 µg/mL (≈ 0.499 µM); with Staphylococcus aureus [3], 0.25 µg/mL (≈ 0.499 µM); in the assay with Streptococcus pneumoniae it was 0.5 µg/mL (≈ 0.997 µM); in the assay on Streptococcus pyogenes it was less than 0.125 µg/mL; against Enterococcus faecium, less than 0.125 µg/mL. The lowest concentration to inhibit growth against Enterococcus faecalis (MIC) was 0.5 µg/mL (≈ 0.997 µM). Besides, the ED50 with Staphylococcus aureus [4] was more than 25 mg/kg.

As to `CC(=O)NC[C@H]1CN(c2ccc(N3CCN(C(=O)/C=C/c4ccc([N+](=O)[O-])s4)CC3)c(F)c2)C(=O)O1`, the minimal inhibitory concentration (MIC) is 0.5 µg/mL (≈ 0.966 µM) in the assay with Staphylococcus aureus [1]; 1 µg/mL (≈ 1.93 µM) in the assay on Staphylococcus aureus [2]; 0.5 µg/mL (≈ 0.966 µM) in the assay on Staphylococcus aureus [3]; 1 µg/mL (≈ 1.93 µM) with Streptococcus pneumoniae; 0.5 µg/mL (≈ 0.966 µM) in the assay with Streptococcus pyogenes; 0.5 µg/mL (≈ 0.966 µM) in the assay with Enterococcus faecium. Further, in the assay with Enterococcus faecalis, the MIC was 1 µg/mL (≈ 1.93 µM). Moreover, the 50% effective dose (ED50) in the assay on Staphylococcus aureus [4] is more than 25 mg/kg.

Regarding `CC(=O)NC[C@H]1CN(c2ccc(N3CCN(c4ccc([N+](=O)[O-])s4)CC3)c(F)c2)C(=O)O1`, the MIC with Staphylococcus aureus [1] was 0.25 µg/mL (≈ 0.539 µM); in the assay on Staphylococcus aureus [2] it was 0.25 µg/mL (≈ 0.539 µM); with Staphylococcus aureus [3], 0.25 µg/mL (≈ 0.539 µM); in the assay on Streptococcus pneumoniae, 0.125 µg/mL (≈ 0.27 µM); in the assay on Streptococcus pyogenes, 0.125 µg/mL (≈ 0.27 µM); against Enterococcus faecium it was 0.25 µg/mL (≈ 0.539 µM). This compound also gave a minimum inhibitory concentration (MIC) against Enterococcus faecalis of 0.25 µg/mL (≈ 0.539 µM). In addition, the MIC50 worked out at 8 µg/mL (≈ 17.3 µM) against Haemophilus influenzae and 2 µg/mL (≈ 4.32 µM) against Moraxella catarrhalis. Besides, the MIC90 in [5] amounted to 0.25 µg/mL (≈ 0.539 µM). In the assay on Staphylococcus aureus [4], this compound yielded a median effective dose (ED50) of 11.2 mg/kg.

As for `CC(=O)NC[C@H]1CN(c2ccc(N3CCN(C(C)c4ccc([N+](=O)[O-])o4)CC3)c(F)c2)C(=O)O1` (stereo partly drawn), the MIC worked out at 1 µg/mL (≈ 2.1 µM) in the assay with Staphylococcus aureus [1]; 1 µg/mL (≈ 2.1 µM) with Staphylococcus aureus [2]; 1 µg/mL (≈ 2.1 µM) in the assay on Staphylococcus aureus [3]; 1 µg/mL (≈ 2.1 µM) against Streptococcus pneumoniae; 0.06 µg/mL (≈ 0.126 µM) against Streptococcus pyogenes; 0.25 µg/mL (≈ 0.526 µM) with Enterococcus faecium. Besides, in the assay on Enterococcus faecalis, the MIC was 0.125 µg/mL (≈ 0.263 µM). In the assay with Staphylococcus aureus [4], this compound registered a 50% effective dose (ED50) of 9.1 mg/kg.

Turning to `CC(=O)NC[C@H]1CN(c2ccc(N3CCN(C(C)c4ccc([N+](=O)[O-])s4)CC3)c(F)c2)C(=O)O1` (stereo partly drawn), the MIC in the assay with Staphylococcus aureus [1] was 0.5 µg/mL (≈ 1.02 µM); against Staphylococcus aureus [2], 0.5 µg/mL (≈ 1.02 µM); in the assay on Staphylococcus aureus [3], 0.5 µg/mL (≈ 1.02 µM); with Streptococcus pneumoniae, 2 µg/mL (≈ 4.07 µM); with Streptococcus pyogenes it was 2 µg/mL (≈ 4.07 µM); in the assay on Enterococcus faecium, 0.5 µg/mL (≈ 1.02 µM). In addition, the minimum inhibitory concentration (MIC) with Enterococcus faecalis was 0.5 µg/mL (≈ 1.02 µM). In the assay on Staphylococcus aureus [4], this compound registered a median effective dose (ED50) of more than 25 mg/kg.

As to `CC(=O)NC[C@H]1CN(c2ccc(N3CCN(C(=O)c4ccc([N+](=O)[O-])o4)CC3)c(F)c2)C(=O)O1`, the MIC is 1 µg/mL (≈ 2.1 µM) in the assay with Staphylococcus aureus [1]; 0.5 µg/mL (≈ 1.05 µM) against Staphylococcus aureus [3]; 2 µg/mL (≈ 4.21 µM) in the assay with Streptococcus pneumoniae; 2 µg/mL (≈ 4.21 µM) against Streptococcus pyogenes; 1 µg/mL (≈ 2.1 µM) in the assay on Enterococcus faecium; 1 µg/mL (≈ 2.1 µM) against Enterococcus faecalis. In the assay on Staphylococcus aureus [4], this compound returned a median effective dose (ED50) of 8.24 mg/kg.

Turning to `CC(=O)NC[C@H]1CN(c2ccc(N3CCN(C(=O)c4ccc([N+](=O)[O-])s4)CC3)c(F)c2)C(=O)O1`, the MIC turned out to be 0.125 µg/mL (≈ 0.254 µM) in the assay on Staphylococcus aureus [1]; 0.06 µg/mL (≈ 0.122 µM) with Staphylococcus aureus [2]; 0.06 µg/mL (≈ 0.122 µM) in the assay on Staphylococcus aureus [3]; 0.5 µg/mL (≈ 1.02 µM) against Streptococcus pneumoniae; 0.125 µg/mL (≈ 0.254 µM) with Streptococcus pyogenes; 0.5 µg/mL (≈ 1.02 µM) in the assay with Enterococcus faecium. In addition, it took 0.5 µg/mL (≈ 1.02 µM) to inhibit growth in the assay on Enterococcus faecalis (MIC). This compound registered an ED50 in the assay on Staphylococcus aureus [4] of 9.77 mg/kg.

For `CC(=O)NC[C@H]1CN(c2ccc(N3CCN(c4ccc([N+](=O)[O-])o4)CC3)c(F)c2)C(=O)O1`, the MIC came to 16 µg/mL (≈ 35.8 µM) in the assay with Staphylococcus aureus [1]; 16 µg/mL (≈ 35.8 µM) in the assay with Staphylococcus aureus [2]; 8 µg/mL (≈ 17.9 µM) with Staphylococcus aureus [3]; 4 µg/mL (≈ 8.94 µM) in the assay with Streptococcus pneumoniae; 4 µg/mL (≈ 8.94 µM) with Streptococcus pyogenes; 8 µg/mL (≈ 17.9 µM) in the assay on Enterococcus faecium. Also, the MIC in the assay on Enterococcus faecalis came out at 8 µg/mL (≈ 17.9 µM).

In the case of `CC(=O)NC[C@H]1CN(c2ccc(N3CCN(c4ccc(C#N)s4)CC3)c(F)c2)C(=O)O1`, the MIC was 4 µg/mL (≈ 9.02 µM) against Staphylococcus aureus [1]; 2 µg/mL (≈ 4.51 µM) against Staphylococcus aureus [2]; 2 µg/mL (≈ 4.51 µM) with Staphylococcus aureus [3]; 0.5 µg/mL (≈ 1.13 µM) with Streptococcus pneumoniae; 0.25 µg/mL (≈ 0.564 µM) in the assay on Streptococcus pyogenes; 2 µg/mL (≈ 4.51 µM) in the assay on Enterococcus faecalis.

On to `CC(=O)NC[C@H]1CN(c2ccc(N3CCN(c4ccc([N+](=O)[O-])s4)CC3)cc2)C(=O)O1`, for which the MIC was determined as 2 µg/mL (≈ 4.49 µM) with Staphylococcus aureus [1]; 1 µg/mL (≈ 2.24 µM) against Staphylococcus aureus [2]; 1 µg/mL (≈ 2.24 µM) with Staphylococcus aureus [3]; 0.5 µg/mL (≈ 1.12 µM) in the assay with Streptococcus pneumoniae; 0.5 µg/mL (≈ 1.12 µM) against Streptococcus pyogenes; 1 µg/mL (≈ 2.24 µM) against Enterococcus faecium. The minimum inhibitory concentration (MIC) in the assay on Enterococcus faecalis is 1 µg/mL (≈ 2.24 µM).

For the compound `CC(=O)NC[C@H]1CN(c2ccc(N3CCN(Cc4ccc([N+](=O)[O-])s4)CC3)c(F)c2)C(=O)O1`, the MIC against Staphylococcus aureus [1] is 8 µg/mL (≈ 16.8 µM); against Staphylococcus aureus [2], 8 µg/mL (≈ 16.8 µM); with Staphylococcus aureus [3], 8 µg/mL (≈ 16.8 µM); against Streptococcus pneumoniae, 8 µg/mL (≈ 16.8 µM); against Streptococcus pyogenes it was 1 µg/mL (≈ 2.09 µM); with Enterococcus faecium, 8 µg/mL (≈ 16.8 µM). For the same compound, it took 8 µg/mL (≈ 16.8 µM) to inhibit growth in the assay with Enterococcus faecalis (MIC). The compound further gave an ED50 with Staphylococcus aureus [4] of more than 25 mg/kg.

In the case of `CC(=O)NC[C@H]1CN(c2ccc(N3CCN(c4ccc(C(C)=O)s4)CC3)c(F)c2)C(=O)O1`, the minimal inhibitory concentration (MIC) in the assay with Staphylococcus aureus [1], against Staphylococcus aureus [2], against Staphylococcus aureus [3], against Streptococcus pneumoniae, in the assay on Streptococcus pyogenes and against Enterococcus faecium was more than 16 µg/mL each time. For the same compound, in the assay with Enterococcus faecalis, the MIC is more than 16 µg/mL.

Turning to `CC(=O)NC[C@H]1CN(c2ccc(N3CCN(c4ccc(C=O)s4)CC3)c(F)c2)C(=O)O1`, the MIC with Staphylococcus aureus [1] was 1 µg/mL (≈ 2.24 µM); against Staphylococcus aureus [2], 0.5 µg/mL (≈ 1.12 µM); in the assay with Staphylococcus aureus [3], 0.5 µg/mL (≈ 1.12 µM); against Streptococcus pneumoniae, 0.5 µg/mL (≈ 1.12 µM); with Streptococcus pyogenes, 0.5 µg/mL (≈ 1.12 µM); with Enterococcus faecium it was 1 µg/mL (≈ 2.24 µM). This compound yielded a minimum inhibitory concentration (MIC) with Enterococcus faecalis of less than 0.25 µg/mL. Besides, the ED50 with Staphylococcus aureus [4] is more than 25 mg/kg.

As for `CC(=O)NC[C@H]1CN(c2cc(F)c(N3CCN(c4ccc([N+](=O)[O-])s4)CC3)c(F)c2)C(=O)O1`, the MIC against Staphylococcus aureus [1] was 0.25 µg/mL (≈ 0.519 µM); against Staphylococcus aureus [2] it was 0.25 µg/mL (≈ 0.519 µM); against Staphylococcus aureus [3], 0.25 µg/mL (≈ 0.519 µM); in the assay with Streptococcus pneumoniae, 0.5 µg/mL (≈ 1.04 µM); against Streptococcus pyogenes, 0.5 µg/mL (≈ 1.04 µM); in the assay on Enterococcus faecium it was 0.25 µg/mL (≈ 0.519 µM). The compound also had a minimal inhibitory concentration (MIC) in the assay on Enterococcus faecalis of 0.25 µg/mL (≈ 0.519 µM). Also, the 50% effective dose (ED50) in the assay on Staphylococcus aureus [4] is more than 25 mg/kg.

For `CC(=O)NC[C@H]1CN(c2ccc(N3CCOCC3)c(F)c2)C(=O)O1` [LINEZOLID], the minimum inhibitory concentration (MIC) in the assay on Streptococcus pyogenes and with Enterococcus faecium was 2 µg/mL (≈ 5.93 µM) each time. The ED50 in the assay on Staphylococcus aureus [4] amounted to 5.6 mg/kg.

Take `CC(=O)NC[C@H]1CN(c2ccc(N3CCN(Cc4ccc([N+](=O)[O-])o4)CC3)c(F)c2)C(=O)O1.Cl` [RANBEZOLID CHLORIDE]: the minimal inhibitory concentration (MIC) worked out at 1 µg/mL with Staphylococcus aureus [1]; 1 µg/mL against Staphylococcus aureus [2]; 2 µg/mL against Staphylococcus aureus [3]; 0.125 µg/mL in the assay on Streptococcus pneumoniae; 0.125 µg/mL with Streptococcus pyogenes; 2 µg/mL against Enterococcus faecium. This compound also returned a minimal inhibitory concentration (MIC) against Enterococcus faecalis of 2 µg/mL. Also, it took a dose of 4.33 mg/kg to reach the 50% effect level with Staphylococcus aureus [4] (ED50).

Take `CN[C@H](CC(C)C)C(=O)N[C@H]1C(=O)N[C@@H](CC(N)=O)C(=O)N[C@H]2C(=O)N[C@H]3C(=O)N[C@H](C(=O)N[C@H](C(=O)O)c4cc(O)cc(O)c4-c4cc3ccc4O)[C@H](O)c3ccc(c(Cl)c3)Oc3cc2cc(c3O[C@@H]2O[C@H](CO)[C@@H](O)[C@H](O)[C@H]2O[C@H]2C[C@](C)(N)[C@H](O)[C@H](C)O2)Oc2ccc(cc2Cl)[C@H]1O` [VANCOMYCIN]: the MIC is 0.5 µg/mL (≈ 0.345 µM) in the assay with Streptococcus pneumoniae and more than 16 µg/mL with Enterococcus faecium. In the assay on Staphylococcus aureus [6], the median effective dose (ED50) came out at 8.8 mg/kg.
